Consider one compound from paper PMC7916669, “Chemical Constituent Profiling of Phyllostachys heterocycla var. Pubescens with Selective Cytotoxic Polar Fraction through EGFR Inhibition in HepG2 Cells” (Molecules, 2021).

The experiment addresses T1, EGFR (epidermal growth factor receptor tyrosine kinase) (Homo sapiens, UniProt P00533).
T1 construct: EGFR cytoplasmic domain (EGFR-CD, amino acids 645–1186), (His)6-tagged
Briefly: EGFR-TK autophosphorylation assay, DELFIA/time-resolved fluorometry, recombinant enzyme. The experiment is classed as biochemical. To be noted: read-out: In Vitro EGFR Activity(nM) *.

Each structure is given as a SMILES string.

T1 sequence (P00533 669-1210): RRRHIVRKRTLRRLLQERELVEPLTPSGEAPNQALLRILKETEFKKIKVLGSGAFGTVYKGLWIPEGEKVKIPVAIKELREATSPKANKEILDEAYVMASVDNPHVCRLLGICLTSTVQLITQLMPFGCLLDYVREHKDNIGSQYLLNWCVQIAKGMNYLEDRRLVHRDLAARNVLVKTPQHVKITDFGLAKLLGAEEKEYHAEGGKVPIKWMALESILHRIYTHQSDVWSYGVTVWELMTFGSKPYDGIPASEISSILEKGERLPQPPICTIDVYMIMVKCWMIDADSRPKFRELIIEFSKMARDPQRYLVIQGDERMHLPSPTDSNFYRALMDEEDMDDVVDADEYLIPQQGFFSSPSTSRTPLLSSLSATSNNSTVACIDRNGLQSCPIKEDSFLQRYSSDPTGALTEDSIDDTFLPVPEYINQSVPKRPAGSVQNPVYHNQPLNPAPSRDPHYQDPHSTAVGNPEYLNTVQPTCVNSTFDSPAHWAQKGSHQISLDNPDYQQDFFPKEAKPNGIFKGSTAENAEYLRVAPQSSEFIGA

`COC(=O)/C=C/c1ccc(O)cc1OC` [compound 1, 7-hydroxy, 5-methoxy, methyl cinnamate]: the IC50 came to 98.6 nM.
